Source: patent US20260250320A1, “LIPIDATED PEPTIDE INHIBITORS OF INTERLEUKIN-23 RECEPTOR” (Janssen Pharmaceutica NV, priority 2023, published 2026)
pIC50: −log10 of the molar value. *1 amine or outer side, *2 acyl side, *3 side chain or, on linkers, in order; H or OH if unused. Where a SMILES comes first, the peptide text is derived from it. Bridges are numbered along the chain shown (N, C = ends). Side-chain parts run from the residue outwards. [ ]: non-standard residue; d: D form. The star is where a group is joined. ξ: configuration not given here. X22 = O=C(O)CCCCCCCCCCCCCCCCC(=O)N[C@@H](CCC(=O)NCCOCCOCC(=O)NCCCCCOCC(=O)*)C(=O)O; X38 = O=C(O)CCCCCCCCCCCCCCCCC(=O)N[C@@H](CCC(=O)NCCOCCOCC(=O)NCCOCCCCC(=O)*)C(=O)O; dTrp(7-Me) = Cc1cccc2c(C[C@@H](N)C(=O)O)c[nH]c12; Biotin = O=C1N[C@H]2[C@H](CS[C@H]2CCCCC(=O)*)N1; Trp(7-Me) = Cc1cccc2c(C[C@H](N)C(=O)O)c[nH]c12; Abu(4-yl) = O=C([C@H](CC[*:3])N[*:1])[*:2]; Hexanoyl(6-NMe3+) = C[N+](C)(C)CCCCCC(=O)*; C18 diacid = O=C(O)CCCCCCCCCCCCCCCCC(=O)*; γGlu = O=C(O)[C@H](CCC(=O)[*:2])N[*:1]; 2Nal = N[C@@H](Cc1ccc2ccccc2c1)C(=O)O; AEF = NCCOc1ccc(C[C@H](N)C(=O)O)cc1; X2 = C[N+](C)(C)C[C@@H](CC(=O)O)N*; 3Pal = N[C@@H](Cc1cccnc1)C(=O)O; Lys(Me) = CNCCCC[C@H](N)C(=O)O; aThr = C[C@H](O)[C@H](N)C(=O)O; PEG4 = NCCOCCOCCOCCOCCC(=O)O; Pen = CC(C)(S)[C@H](N)C(=O)O; Suc = O=C(CCC(=O)[*:2])[*:1]; Lauroyl = CCCCCCCCCCCC(=O)*; αMeC = C[C@](N)(CS)C(=O)O; ξR = N=C(N)NCCCC(N)C(=O)O; Thp = NC1(C(=O)O)CCOCC1; X1 = C[N+](C)(C)CCCCC*; AEEA = NCCOCCOCC(=O)O; ξK = NCCCCC(N)C(=O)O; ClAc = O=C(CCl)*; Sar = CNCC(=O)O

Key:
[1] = test system: IL-23-stimulated phosphorylated STAT3 in peripheral blood mononuclear cells (PBMCs); test: PBMC pSTAT3 Assay; type: cell-based; settings: PBMCs from healthy donors; 30 min preincubation with peptide; IL-23 5 ng/mL for 30 min; phospho-STAT3 by MSD
Summary of the method: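 Phospho-STAT3 quantified by Meso Scale assay in lysates of PBMCs exposed to IL-23 (5 ng/mL, 30 min, 37 °C) after 30 min peptide pretreatment. Cells were cryopreserved donor PBMCs activated 4 days with anti-CD3 plus IL-1β (100 ng/mL) and starved ~4 h; IC50 reported.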

IL-23R = target: T1, IL-23R (Homo sapiens, UniProt Q5VWK5); test: IL23R Reporter Assay; type: cell-based; settings: HEK293 cells containing IL-23R, IL-12Rβ1 and STAT-inducible firefly luciferase reporter; 10 ng/mL IL-23 (EC90); 5 h
T1 construct: HEK293 cells containing IL-23R, IL-12Rβ1 and a firefly luciferase reporter gene driven by a STAT-inducible promoter (Promega); host or cells: HEK293
T1 sequence (Q5VWK5 24-629): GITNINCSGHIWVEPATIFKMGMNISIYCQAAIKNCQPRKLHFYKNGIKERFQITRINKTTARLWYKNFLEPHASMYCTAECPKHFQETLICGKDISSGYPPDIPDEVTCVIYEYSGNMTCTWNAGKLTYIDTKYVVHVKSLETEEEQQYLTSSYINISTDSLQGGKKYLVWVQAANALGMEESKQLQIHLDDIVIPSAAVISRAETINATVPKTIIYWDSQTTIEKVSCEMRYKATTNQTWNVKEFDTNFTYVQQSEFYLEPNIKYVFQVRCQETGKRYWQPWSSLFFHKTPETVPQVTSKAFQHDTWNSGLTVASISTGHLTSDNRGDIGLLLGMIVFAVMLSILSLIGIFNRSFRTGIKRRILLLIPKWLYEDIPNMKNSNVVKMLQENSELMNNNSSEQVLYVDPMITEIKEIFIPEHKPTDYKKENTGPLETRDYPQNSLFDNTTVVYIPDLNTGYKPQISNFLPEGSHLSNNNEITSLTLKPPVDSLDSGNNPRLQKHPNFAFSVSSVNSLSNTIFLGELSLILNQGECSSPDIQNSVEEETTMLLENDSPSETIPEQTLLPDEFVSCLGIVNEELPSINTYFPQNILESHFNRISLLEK
Summary of the method: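 IC50 values were fitted with a 4-parameter Hill equation to luciferase signal, scaled between IL-23-only wells (0% inhibition) and 30 μM reference inhibitor (100%). The readout was a STAT-inducible reporter in IL-23R/IL-12Rβ1 HEK293 cells, stimulated with added 10 ng/mL IL-23 (EC90) for 5 h at 37° C and developed with BioGlo.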

| SMILES | pIC50 [1] | pIC50 (IL-23R) |
| --- | --- | --- |
| CC(=O)NCCCC[C@@H]1NC(=O)[C@H](Cc2c[nH]c3c(C)cccc23)NC(=O)[C@H]([C@@H](C)O)NC(=O)[C@H](CC(N)=O)NC(=O)[C@@H](NC(=O)[C@@H](CCCNC(=N)N)NC(C)=O)C(C)(C)SSC(C)(C)[C@@H](C(=O)N[C@@H](Cc2ccc(OCCN)cc2)C(=O)N[C@@H](Cc2ccc3ccccc3c2)C(=O)NC2(C(=O)N[C@@H](CCCCNC(=O)CCOCCOCCOCCOCCNC(=O)CCl)C(=O)N[C@@H](CC(N)=O)C(=O)N[C@@H](Cc3cccnc3)C(=O)N(C)CC(=O)N[C@@H](CCCCNC(=O)COCCOCCNC(=O)COCCOCCNC(=O)CC[C@H](NC(=O)CCCCCCCCCCCCCCCCC(=O)O)C(=O)O)C(N)=O)CCOCC2)NC1=O [compound 4, MeCO-r-Pen(3)-N-T-7MeW-K(Ac)-Pen(3)-AEF-2Nal-THP-K(PEG4AcCl)-N-3Pya-Sar-K(PEG2PEG2gEC18OH)-CONH2] (Ac-[dR][Pen]NT[Trp(7-Me)]K(Ac)[Pen][AEF][2Nal][Thp]K([PEG4-ClAc])N[3Pal][Sar]K([AEEA-AEEA-γGlu-C18 diacid])-NH2; disulfide 2-7) | > 9.30 | > 7.30 |
| CC(=O)N[C@@H](CCCCNC(=O)CCCCOCCNC(=O)COCCOCCNC(=O)CC[C@H](NC(=O)CCCCCCCCCCCCCCCCC(=O)O)C(=O)O)C(=O)N[C@@H]1C(=O)N[C@@H](CC(=O)N(C)C)C(=O)N[C@@H]([C@@H](C)O)C(=O)N[C@@H](Cc2c[nH]c3c(C)cccc23)C(=O)N[C@@H](CCCCN(C)C(C)=O)C(=O)N[C@H](C(=O)N[C@@H](Cc2ccc(OCCCCC[N+](C)(C)C)cc2)C(=O)N[C@@H](Cc2ccc3ccccc3c2)C(=O)NC2(C(=O)N[C@@H](CCCCN(C)C(C)=O)C(=O)N[C@@H](CC(N)=O)C(=O)N[C@@H](Cc3cccnc3)C(=O)N(C)CC(N)=O)CCOCC2)C(C)(C)SSC1(C)C [compound 63, MeCO-K(PEG2PEG2gEC18OH)-Pen(3)-N(N(Me)2)-T-7MeW-K(NMeAc)-Pen(3)-TMAPF-2Nal-THP-K(NMeAc)-N-3Pya-Sar-CONH2] (Ac-K(X38)[Pen]D(NMe2)T[Trp(7-Me)][Lys(Me)](Ac)[Pen]Y(X1)[2Nal][Thp][Lys(Me)](Ac)N[3Pal][Sar]-NH2; disulfide 2-7) | ≤ 8.30 | ≤ 6.30 |
| CC(=O)NCCCC[C@@H]1NC(=O)[C@H](Cc2c[nH]c3c(C)cccc23)NC(=O)[C@H]([C@@H](C)O)NC(=O)[C@H](CC(N)=O)NC(=O)[C@@H](NC(C)=O)C(C)(C)SSC(C)(C)[C@@H](C(=O)N[C@@H](Cc2ccc(OCCNC(=O)COCCOCCNC(=O)COCCOCCNC(=O)CC[C@H](NC(=O)CCCCCCCCCCCCCCCCC(=O)O)C(=O)O)cc2)C(=O)N[C@@H](Cc2ccc3ccccc3c2)C(=O)NC2(C(=O)N[C@@H](CCCCNC(=O)CCC(=O)N[C@H](CC(=O)O)C[N+](C)(C)C)C(=O)N[C@@H](CC(N)=O)C(=O)N[C@@H](Cc3cccnc3)C(=O)N(C)CC(N)=O)CCOCC2)NC1=O [compound 8, MeCO-Pen(3)-N-T-7MeW-K(Ac)-Pen(3)-AEF(PEG2PEG2gEC18OH)-2Nal-THP-K(d)-N-3Pya-Sar-CONH2] (Ac-[Pen]NT[Trp(7-Me)]K(Ac)[Pen][AEF]([AEEA-AEEA-γGlu-C18 diacid])[2Nal][Thp]K([Suc-X2])N[3Pal][Sar]-NH2; disulfide 1-6) | > 9.30 | > 7.30 |
| CC(=O)NCCCCC1NC(=O)[C@H](Cc2c[nH]c3c(C)cccc23)NC(=O)[C@H]([C@@H](C)O)NC(=O)[C@H](CC(N)=O)NC(=O)[C@@H](NC(=O)[C@H](CCCCNC(=O)COCCOCCNC(=O)COCCOCCNC(=O)CC[C@H](NC(=O)CCCCCCCCCCCCCCCCC(=O)O)C(=O)O)NC(C)=O)C(C)(C)SSC(C)(C)[C@@H](C(=O)N[C@@H](Cc2ccc(OCCN)cc2)C(=O)N[C@@H](Cc2ccc3ccccc3c2)C(=O)NC2(C(=O)N[C@@H](CCCCNC(C)=O)C(=O)N[C@@H](CC(N)=O)C(=O)N[C@@H](Cc3cccnc3)C(=O)N(C)CC(N)=O)CCOCC2)NC1=O (stereo partly drawn) [compound 39, MeCO-K(PEG2PEG2gEC18OH)-Pen(3)-N-T-7MeW-K(Ac)-Pen(3)-AEF-2Nal-THP-K(Ac)-N-3Pya-Sar-CONH2] (Ac-K([AEEA-AEEA-γGlu-C18 diacid])[Pen]NT[Trp(7-Me)][ξK](Ac)[Pen][AEF][2Nal][Thp]K(Ac)N[3Pal][Sar]-NH2; disulfide 2-7) | > 9.30 | > 7.30 |
| CCCCCCCCCCCC(=O)N[C@@H](CCC(=O)NCCOCCOCC(=O)NCCOCCOCC(=O)NC(CCCNC(=N)N)C(=O)N[C@H]1CCSC[C@@](C)(C(=O)N[C@@H](Cc2ccc(OCCN)cc2)C(=O)N[C@@H](Cc2ccc3ccccc3c2)C(=O)NC2(C(=O)N[C@@H](CCC(=O)O)C(=O)N[C@@H](CC(N)=O)C(=O)N[C@@H](Cc3cccnc3)C(=O)N(C)CC(N)=O)CCOCC2)NC(=O)[C@H](CCCCNC(C)=O)NC(=O)[C@H](Cc2c[nH]c3ccccc23)NC(=O)[C@H]([C@H](C)O)NC(=O)[C@H](CC(N)=O)NC1=O)C(=O)O (stereo partly drawn) [compound 5, C12gEPEG2PEG2CO-r-Abu(1)-N-T-W-K(Ac)-aMeC(1)-AEF-2Nal-THP-E-N-3Pya-Sar-CONH2] ({Lauroyl-γGlu-AEEA-AEEA}-[ξR][Abu(4-yl)]N[aThr]WK(Ac)[αMeC][AEF][2Nal][Thp]EN[3Pal][Sar]-NH2; thioether 2-7) | 8.30 to 9.30 | > 7.30 |
| CC(=O)NCCCC[C@@H]1NC(=O)[C@@H](Cc2c[nH]c3c(C)cccc23)NC(=O)[C@H]([C@@H](C)O)NC(=O)[C@H](CC(N)=O)NC(=O)[C@@H](NC(=O)[C@@H](CCCNC(=N)N)NC(=O)CCOCCOCCOCCOCCNC(=O)CCCC[C@@H]2SC[C@@H]3NC(=O)N[C@@H]32)C(C)(C)SSC(C)(C)[C@@H](C(=O)N[C@@H](Cc2ccc(OCCN)cc2)C(=O)N[C@@H](Cc2ccc3ccccc3c2)C(=O)NC2(C(=O)N[C@@H](CCC(=O)O)C(=O)N[C@@H](CC(N)=O)C(=O)N[C@@H](Cc3cccnc3)C(=O)N(C)CC(=O)N[C@@H](CCCCNC(=O)COCCCCCNC(=O)COCCOCCNC(=O)CC[C@H](NC(=O)CCCCCCCCCCCCCCCCC(=O)O)C(=O)O)C(N)=O)CCOCC2)NC1=O [compound 57, BiotinPEG4CO-r-Pen(3)-N-T-7MeW-K(Ac)-Pen(3)-AEF-2Nal-THP-E-N-3Pya-Sar-K(PEG2PEG2gEC18OH)-CONH2] ({Biotin-PEG4}-[dR][Pen]NT[dTrp(7-Me)]K(Ac)[Pen][AEF][2Nal][Thp]EN[3Pal][Sar]K(X22)-NH2; disulfide 2-7) | > 9.30 | > 7.30 |
| CC(=O)N(C)CCCC[C@@H]1NC(=O)[C@H](CC2=CCc3c(C)cccc32)NC(=O)[C@H]([C@@H](C)O)NC(=O)[C@H](CC(=O)N(C)C)NC(=O)[C@@H](NC(=O)CCOCCOCC[N+](C)(C)C)C(C)(C)SSC(C)(C)C(CN[C@@H](Cc2ccc(OCCNC(=O)C[N+](C)(C)CCNC(=O)CCOCCOCCOCCOCCOCCOCCNC(=O)CC[C@H](CC(=O)CCCCCCCCCCCCCCCCCCC(=O)O)C(=O)O)cc2)C(=O)N[C@@H](Cc2ccc3ccccc3c2)C(=O)NC2(C(=O)N[C@@H](CCCCN(C)C(C)=O)C(=O)N[C@@H](CC(N)=O)C(=O)N[C@@H](Cc3cccnc3)C(C)N(C)CC(=O)N(C)C)CCOCC2)NC1=O (stereo partly drawn) [compound 140, cPEG3aCO-Pen(3)-N(N(Me)2)-T-7MeW-K(NMeAc)-Pen(3)-AEF(SP6PEG6gEC20OH)-2Nal-THP-K(NMeAc)-N-3Pya-Sar-CON(Me)2] | > 9.30 | 6.30 to 7.30 |
| CC(=O)NCCCC[C@@H]1NC(=O)[C@H](Cc2c[nH]c3c(C)cccc23)NC(=O)[C@H]([C@@H](C)O)NC(=O)[C@H](CCCCNC(=O)COCCOCCNC(=O)COCCOCCNC(=O)CC[C@H](NC(=O)CCCCCCCCCCCCCCCCC(=O)O)C(=O)O)NC(=O)[C@@H](NC(=O)[C@@H](CCCNC(=N)N)NC(=O)CCCCC[N+](C)(C)C)C(C)(C)SSC(C)(C)[C@@H](C(=O)N[C@@H](Cc2ccc(OCCN)cc2)C(=O)N[C@@H](Cc2ccc3ccccc3c2)C(=O)NC2(C(=O)N[C@@H](CCC(=O)O)C(=O)N[C@@H](CC(N)=O)C(=O)N[C@@H](Cc3cccnc3)C(=O)N(C)CC(N)=O)CCOCC2)NC1=O [compound 73, 5cpaCO-r-Pen(3)-K(PEG2PEG2gEC18OH)-T-7MeW-K(Ac)-Pen(3)-AEF-2Nal-THP-E-N-3Pya-Sar-CONH2] ({Hexanoyl(6-NMe3+)}-[dR][Pen]K([AEEA-AEEA-γGlu-C18 diacid])T[Trp(7-Me)]K(Ac)[Pen][AEF][2Nal][Thp]EN[3Pal][Sar]-NH2; disulfide 2-7) | > 9.30 | 6.30 to 7.30 |
